Results: patent publication US9889135B2, “Companion diagnostic for CDK4 inhibitors” (Memorial Sloan-Kettering Cancer Center, priority 2013, dated 2018)

Assays:
[1] = system: DBTRG-05MG glioma cells; test: PD-induced growth arrest (BrdU incorporation); format: cell-based; details: BrdU incorporation 7 days after treatment
Experimental: (§1) Cell lines were maintained in DMEM High glucose (HG) supplemented with 10% heat-inactivated fetal bovine serum. Glioma cell lines, DKMG, SNB19, DBTRG-05MG, and […], were maintained in DMEM HG supplemented with 10% fetal bovine serum and 2 mM glutamine. The MCF7 breast cancer cell line was maintained in RPMI-1640 media supplemented with 10% fetal bovine serum and 2 mM glutamine.
(§2) shRNA were delivered in the pLKO.1 vector (Sigma) and infected cells selected using puromycin (1 μg/ml); infection with a virus carrying a scramble control ([…]) was used as a control in all experiments utilizing shRNA. Cell lines were treated with […] or shRNA directed against CDK4 ([…] (SEQ ID NO:4)), MDM2 (M376, […] (SEQ ID NO:5); M380, […] (SEQ ID NO:6)), HAUSP (4057, […] (SEQ ID NO:7); 845, […] (SEQ ID NO:8)) or CDK6 ([…] (SEQ ID NO:9)) for 48 hours to 7 days and stained with BrdU (20 μM for two hours) or annexin V as previously described (22, 48). […] was determined by staining with propidium iodine and FACS analyses (49).
(§3) Cells were stained with BrdU (20 μM for two hours) or annexin V as previously described (22, 48). […] was determined by staining with propidium iodine and FACS analyses (49).

[2] = system: DKMG glioma cells; test: PD-induced growth arrest (BrdU incorporation); format: cell-based; details: BrdU incorporation 7 days after treatment
Experimental: as §1, §2, §3

[3] = system: MCF7 breast cancer cells; test: PD-induced growth arrest (BrdU incorporation); format: cell-based; details: BrdU incorporation 7 days after treatment
Experimental: as §1, §2, §3

[4] = system: SNB19 glioma cells; test: PD-induced growth arrest (BrdU incorporation); format: cell-based; details: BrdU incorporation 7 days after treatment
Experimental: as §1, §2, §3

[5] = system: T98G glioma cells; test: PD-induced growth arrest (BrdU incorporation); format: cell-based; details: BrdU incorporation 7 days after treatment
Experimental: as §1, §2, §3

[6] = system: MDM2 in DBTRG-05MG glioma cells; test: MDM2 expression by immunoblot; format: cell-based
Experimental: (§4) Antibodies against CDK4 (3F121), MDM2 (N-20 and SMP14), total RB (IF8), Cyclin A (H432), p16 (C20), p53 (DO-1 and Bp53-12), tubulin (C20) and FLAG (M2) were obtained from Santa Cruz Biotechnology, phospho-Rb 780 (#9307) from Cell Signalling, and ARF (3642) from Abeam, HAUSP (A300-033A) from Bethyl Laboratories. Treated cells were lysed with buffer composed of 50 mM Tris-HCl, pH7.4, 250 mM NaCl, 5 mM EDTA, 0.5% NP40, 2 mM PMSF, and supplemented with protease inhibitors. Eighty micrograms of protein were resolved by SDS-PAGE and transferred to PVDF membranes. Membranes were incubated overnight with antibodies (1:1000). […] Cycles were repeated every four weeks and patients are still on trial. Pre-treatment biopsies were collected within two weeks of the first dose and post-treatment biopsies collected after at last three weeks of treatment. Extracts were prepared in 50 mM Tris-HCl, pH7.4, 150 mM NaCl, 1 mM EDTA, 1% NP40, 0.25% sodium deoxycholate and supplemented with mini-protease inhibitor cocktail (Roche). Tumor response was assessed by reference radiologist by CT scan every six weeks for 36 weeks, and every 12 weeks thereafter. The clinical trial was approved by the Institutional Review Board of Memorial Sloan-Kettering Cancer Center and all patients provided written informed consent (NCT01209598).

[7] = system: MDM2 in DKMG glioma cells; test: MDM2 expression by immunoblot; format: cell-based
Experimental: as §4

[8] = system: MDM2 in MCF7 breast cancer cells; test: MDM2 expression by immunoblot; format: cell-based
Experimental: as §4

[9] = system: MDM2 in SNB19 glioma cells; test: MDM2 expression by immunoblot; format: cell-based
Experimental: as §4

[10] = system: MDM2 in T98G glioma cells; test: MDM2 expression by immunoblot; format: cell-based
Experimental: as §4

[11] = system: seven RB-positive patient derived WD/DDLS cell lines; test: cell number by Coulter Counter; format: cell-based, human; details: asynchronously growing cells, counted daily for 4 days
[12] = system: RB in WD/DDLS cell lines; test: RB phosphorylation by immunoblot; format: cell-based, human; details: 1 or 2 days of treatment
Experimental: FIG. 1A-C. […] Mean percentage of BrdU incorporation or annexin V+/7-AAD− cells was calculated from three or more independent experiments. Error bars represent standard deviation (*p<0.05).
as §4, with “The clinical trial was approved by the Institutional Review Board of Memorial Sloan-Kettering Cancer Center and all patients provided written informed consent (NCT01209598).” left out

[13] = system: LS8107 and LS7785-1 cells; test: BrdU incorporation after release into drug-free medium; format: cell-based, human; details: after seven days of drug treatment
From the text: (§5) Mean percentage standard deviation). (*p<0.05). (A) Senescence-associated β-galactosidase and (B) HP1γ staining for senescence associated heterochromatic foci (SAHF) formation was quantitated for three or more independent experiments for each cell line. (*p<0.05). Representative phase contrast micrographs of cells stained for SA-β-gal or immunofluorescence staining for HP1γ in two of the cell lines before (ctrl) and after (PD) drug treatment are shown in the insets of FIGS. 2A and 2B, respectively. (C) BrdU incorporation. Cell lines were treated with PD0332991 for seven days, and released into drug-free medium containing BrdU for the number of days indicated. Error bars represent the standard deviation of the mean calculated from three independent trials.

[14] = system: LS8817 and LS0082 cells; test: as above; format: cell-based, human; details: after seven days of drug treatment
From the text: as §5

[15] = system: cytokine secretion of LS8313 cells; test: human cytokine array (SASP); format: cell-based; details: 1 μM, seven days
Experimental: (§6) FIG. 16. […] Human cytokine arrays were purchased from R&D Technologies (ARY006). […] The media was changed 24 hours prior to harvest. On the day of harvest, the media was collected, spun for 5 minutes at 1200 rpm and filtered through a […] syringe to remove debris. Cells were trypsinized and counted and media volume was adjusted so that an equal number of cells were represented from each sample. Cytokine arrays were performed according to manufacturer's protocol. Signal intensity was measured using ImageJ and a log2 value of the PD/CTRL ratio was calculated.

[16] = system: cytokine secretion of LS8817 cells; test: human cytokine array (SASP); format: cell-based; details: 1 μM, seven days
Experimental: as §6

[17] = system: RB-positive WD/DDLS; details: two patients with RB-positive WD/DDLS; cited from earlier work
[18] = system: normal and tumor cells; details: both normal and tumor cells; cited from earlier work
[19] = ratio of MDM2 detected by Image J scanning in treated versus untreated cultures

Compound: CC(=O)c1c(C)c2cnc(Nc3ccc(N4CCNCC4)cn3)nc2n(C2CCCC2)c1=O [PD0332991]
- PD-induced growth arrest [1]: + (BrdU incorporation is reduced at least 8X 7 days after treatment with the drug)
- PD-induced growth arrest [2]: + (BrdU incorporation is reduced at least 8X 7 days after treatment with the drug)
- PD-induced growth arrest [3]: + (BrdU incorporation is reduced at least 8X 7 days after treatment with the drug)
- PD-induced growth arrest [4]: + (BrdU incorporation is reduced at least 8X 7 days after treatment with the drug)
- PD-induced growth arrest [5]: + (BrdU incorporation is reduced at least 8X 7 days after treatment with the drug)
- MDM2 expression levels reduced compared to the non-treated cells [6]: greater than 34%
- ΔMDM2 with PD [6, 19]: 0.49
- MDM2 expression levels reduced compared to the non-treated cells [7]: greater than 34%
- ΔMDM2 with PD [7, 19]: 0.66
- MDM2 expression levels reduced compared to the non-treated cells [8]: greater than 34%
- ΔMDM2 with PD [8, 19]: 0.08
- MDM2 expression levels reduced compared to the non-treated cells [9]: greater than 34%
- ΔMDM2 with PD [9, 19]: 0.08
- MDM2 levels ([10]; cells that did not undergo senescence): unaffected
- ΔMDM2 with PD [10, 19]: Not detected
- growth arrest [11]: growth arrest within a single cell cycle
- unphosphorylated RB [12]: accumulated
- time to return to the cell cycle after the drug was removed [13]: ≤ 48 h
- return to the cell cycle after the drug was removed [14]: did not
- SASP cytokine secretion [15]: only IL-6 secretion increased
- MIF-1 and PAI-1 secretion [16]: essentially unchanged
- secretion of GM-CSF, GROα/CXCL1, IL-6, IL-8 and MCP-1 [16]: upregulated
- clinical response [17]: prolonged stable disease lasting several years
- cell cycle arrest [18]: G1 arrest
